# From patent US8815882B2, “Pyrazole aminopyrimidine derivatives as LRRK2 modulators” (Genentech, Inc., priority 2010, dated 2014)
# Molecular target: T1, LRRK2 (Homo sapiens, UniProt Q5S007, G2019S)
# T1 construct: purchased Invitrogen PV4882 (lot 567054A)
# Experiment: In Vitro LRRK2 Assay (LabChip 3000, fluorescently-labeled peptide substrate, ATP)
# Format: biochemical
# Conditions: read-out: LRRK2 Ki (KI), Table 8
# Summary of the method: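 Read-out was LabChip capillary electrophoresis, resolving phospho- from non-phospho-peptide by fluorescence intensity. The kinase reaction combined enzyme, ATP, test compound and labeled peptide (4 μM working dilution) for 2 h in darkness before stop solution. Values were reported as Ki, from a tight-binding model with Et, S and Km, or as IC50 or percent inhibition.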
# T1 sequence (Q5S007 whole entry G2019S): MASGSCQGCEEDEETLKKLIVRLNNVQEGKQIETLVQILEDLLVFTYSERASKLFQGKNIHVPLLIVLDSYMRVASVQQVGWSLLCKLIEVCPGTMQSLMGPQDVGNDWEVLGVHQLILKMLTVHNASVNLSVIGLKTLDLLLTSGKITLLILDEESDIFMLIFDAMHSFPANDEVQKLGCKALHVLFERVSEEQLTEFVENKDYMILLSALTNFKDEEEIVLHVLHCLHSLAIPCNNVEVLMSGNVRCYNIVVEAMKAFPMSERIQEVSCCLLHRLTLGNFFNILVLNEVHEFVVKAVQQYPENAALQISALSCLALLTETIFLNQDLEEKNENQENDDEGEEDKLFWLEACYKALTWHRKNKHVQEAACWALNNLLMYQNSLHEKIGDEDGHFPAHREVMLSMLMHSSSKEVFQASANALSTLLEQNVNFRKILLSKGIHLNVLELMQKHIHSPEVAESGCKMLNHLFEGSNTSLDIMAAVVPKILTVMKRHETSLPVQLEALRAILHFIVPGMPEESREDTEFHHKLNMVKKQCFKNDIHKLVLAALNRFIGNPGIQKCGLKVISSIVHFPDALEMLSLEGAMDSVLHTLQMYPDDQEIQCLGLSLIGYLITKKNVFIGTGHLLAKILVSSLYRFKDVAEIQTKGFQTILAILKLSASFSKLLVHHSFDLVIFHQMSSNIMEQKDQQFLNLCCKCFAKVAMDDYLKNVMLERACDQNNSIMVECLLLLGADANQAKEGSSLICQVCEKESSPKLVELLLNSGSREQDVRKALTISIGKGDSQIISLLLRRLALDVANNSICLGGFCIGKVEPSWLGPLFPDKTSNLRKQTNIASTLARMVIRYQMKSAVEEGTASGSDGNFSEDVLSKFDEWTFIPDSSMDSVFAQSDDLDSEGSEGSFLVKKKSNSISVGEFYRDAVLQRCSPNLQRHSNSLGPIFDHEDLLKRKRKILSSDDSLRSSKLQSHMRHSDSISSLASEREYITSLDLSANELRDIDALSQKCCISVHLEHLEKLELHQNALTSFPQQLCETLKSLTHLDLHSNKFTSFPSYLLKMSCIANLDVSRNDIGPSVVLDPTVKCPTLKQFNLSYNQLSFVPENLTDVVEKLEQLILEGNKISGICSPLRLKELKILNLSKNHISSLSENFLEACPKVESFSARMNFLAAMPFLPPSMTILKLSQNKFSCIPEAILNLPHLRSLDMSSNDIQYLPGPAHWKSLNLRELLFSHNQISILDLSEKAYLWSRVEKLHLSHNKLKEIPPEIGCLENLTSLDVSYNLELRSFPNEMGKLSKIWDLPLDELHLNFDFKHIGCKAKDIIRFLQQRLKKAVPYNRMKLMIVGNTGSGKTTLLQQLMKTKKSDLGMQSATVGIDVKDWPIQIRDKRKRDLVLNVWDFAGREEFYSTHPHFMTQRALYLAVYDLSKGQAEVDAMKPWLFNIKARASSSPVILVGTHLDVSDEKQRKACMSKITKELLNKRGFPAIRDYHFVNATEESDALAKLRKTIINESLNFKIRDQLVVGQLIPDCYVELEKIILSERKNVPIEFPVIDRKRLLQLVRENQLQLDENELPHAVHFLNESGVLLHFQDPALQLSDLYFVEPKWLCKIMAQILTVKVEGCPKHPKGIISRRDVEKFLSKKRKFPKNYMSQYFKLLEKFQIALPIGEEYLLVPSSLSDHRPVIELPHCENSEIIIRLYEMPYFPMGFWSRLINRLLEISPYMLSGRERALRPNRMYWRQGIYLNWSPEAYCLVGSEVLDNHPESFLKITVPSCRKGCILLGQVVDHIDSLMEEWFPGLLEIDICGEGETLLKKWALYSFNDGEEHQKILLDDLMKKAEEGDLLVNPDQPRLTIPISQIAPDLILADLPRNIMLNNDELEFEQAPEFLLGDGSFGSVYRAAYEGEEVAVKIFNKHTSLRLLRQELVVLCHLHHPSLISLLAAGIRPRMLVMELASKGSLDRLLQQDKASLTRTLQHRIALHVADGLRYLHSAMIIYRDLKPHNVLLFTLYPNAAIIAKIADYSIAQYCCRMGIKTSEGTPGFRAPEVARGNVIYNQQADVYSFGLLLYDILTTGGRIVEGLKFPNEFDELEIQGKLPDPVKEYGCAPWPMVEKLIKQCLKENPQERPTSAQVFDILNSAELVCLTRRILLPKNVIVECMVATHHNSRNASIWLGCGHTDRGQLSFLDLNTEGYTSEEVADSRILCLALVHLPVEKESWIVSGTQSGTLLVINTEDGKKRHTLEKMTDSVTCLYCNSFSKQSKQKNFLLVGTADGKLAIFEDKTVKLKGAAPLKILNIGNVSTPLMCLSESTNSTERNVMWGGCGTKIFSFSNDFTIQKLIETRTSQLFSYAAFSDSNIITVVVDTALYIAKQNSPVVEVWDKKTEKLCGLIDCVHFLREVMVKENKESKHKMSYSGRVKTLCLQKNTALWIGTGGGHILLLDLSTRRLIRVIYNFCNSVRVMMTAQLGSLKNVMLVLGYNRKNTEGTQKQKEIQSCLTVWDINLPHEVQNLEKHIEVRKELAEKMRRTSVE
row,Structure (SMILES),Ki [nM]
1,"CCNc1nc(Nc2cnn(-c3ccc(S(C)(=O)=O)cc3)c2C)ncc1C(F)(F)F [Example 163, N4-ethyl-N2-(5-methyl-1-(4-(methylsulfonyl)phenyl)-1H-pyrazol-4-yl)-5-(trifluoromethyl) pyrimidine-2,4-diamine]",0.3
2,"CNc1nc(Nc2cn(-c3ccc(C(=O)N(C)C)cc3)nc2C)ncc1C(F)(F)F [Example 164, N,N-dimethyl-4-(3-methyl-4-(4-(methylamino)-5-(trifluoromethyl)pyrimidin-2-ylamino)-1H-pyrazol-1-yl)benzamide]",5.7
3,"CNc1nc(Nc2cnn(-c3ccc(S(=O)(=O)C4CC4)cc3)c2C)ncc1C(F)(F)F [Example 167, N2-(1-(4-(cyclopropyl-sulfonyl)phenyl)-5-methyl-1H-pyrazol-4-yl)-N4-methyl-5-(trifluoromethyl) pyrimidine-2,4-diamine]",18.8
4,"CCNc1nc(Nc2cnn(CC3(C)COC3)c2C)ncc1C(F)(F)F [Example 169, N4-ethyl-N2-(5-methyl-1-((3-methyloxetan-3-yl)methyl)-1H-pyrazol-4-yl)-5-(trifluoromethyl) pyrimidine-2,4-diamine]",2.2
5,"CCNc1nc(Nc2cn(S(=O)(=O)C3CC3)nc2C)ncc1C(F)(F)F [Example 171, N2-(1-(cyclopropyl-sulfonyl)-3-methyl-1H-pyrazol-4-yl)-N4-ethyl-5-(trifluoromethyl) pyrimidine-2,4-diamine]",0.9
6,"Cc1c(Nc2ncc(Cl)c(NCC(F)F)n2)cnn1C [Example 172, 5-chloro-N4-(2,2-difluoroethyl)-N2-(1,5-dimethyl-1H-pyrazol-4-yl)pyrimidine-2,4-diamine]",7
7,"Cc1nc(Nc2cn(-c3ccc(S(C)(=O)=O)cc3)nc2C)ncc1Cl [Example 173, 5-chloro-4-methyl-N-(3-methyl-1-(4-(methylsulfonyl)phenyl)-1H-pyrazol-4-yl)pyrimidin-2-amine]",484
8,"CCNc1nc(Nc2cnn(-c3ccc(S(=O)(=O)C4CC4)cc3)c2C)ncc1C(F)(F)F [Example 174, N2-(1-(4-(cyclopropyl-sulfonyl)phenyl)-5-methyl-1H-pyrazol-4-yl)-N4-ethyl-5-(trifluoromethyl) pyrimidine-2,4-diamine]",1.1
9,"CCNc1nc(Nc2ccnn2C)ncc1C(F)(F)F [Example 176, N4-ethyl-N2-(1-methyl-1H-pyrazol-5-yl)-5-(trifluoromethyl) pyrimidine-2,4-diamine]",11
10,"CNc1nc(Nc2cnn(CC3(C)COC3)c2Cl)ncc1C(F)(F)F [Example 180, N2-(5-chloro-1-((3-methyloxetan-3-yl)methyl)-1H-pyrazol-4-yl)-N4-methyl-5-(trifluoromethyl) pyrimidine-2,4-diamine]",5.6
11,"CCNc1nc(Nc2cn(C3CN(C4COC4)C3)nc2C)ncc1C(F)(F)F [Example 182, N4-ethyl-N2-(3-methyl-1-(1-(oxetan-3-yl)azetidin-3-yl)-1H-pyrazol-4-yl)-5-(trifluoromethyl) pyrimidine-2,4-diamine]",1.5
12,"CCNc1nc(Nc2cn(C3CCN(C(=O)C4CC4)CC3)nc2C)ncc1C(F)(F)F [Example 183, cyclopropyl(4-(4-(4-(ethylamino)-5-(trifluoromethyl)pyrimidin-2-ylamino)-3-methyl-1H-pyrazol-1-yl)piperidin-1-yl)methanone]",0.6
13,"CCNc1nc(Nc2ccn(CC)n2)ncc1C(F)(F)F [Example 186, N4-ethyl-N2-(1-ethyl-1H-pyrazol-3-yl)-5-(trifluoromethyl) pyrimidine-2,4-diamine]",1.9
14,"CNc1nc(Nc2cnn(C[C@H](C)OC)c2C)ncc1C(F)(F)F [Example 187, (S)-N2-(1-(2-methoxypropyl)-5-methyl-1H-pyrazol-4-yl)-N4-methyl-5-(trifluoromethyl) pyrimidine-2,4-diamine]",18.8
15,"CNc1nc(Nc2cn(C3CCCC3OC)nc2C)ncc1C(F)(F)F (stereo not drawn) [Example 188, N2-(1-(2-methoxycyclo-pentyl)-3-methyl-1H-pyrazol-4-yl)-N4-methyl-5-(trifluoromethyl) pyrimidine-2,4-diamine]",12
16,"CNc1nc(Nc2cn(C[C@H](C)OC)nc2C)ncc1C(F)(F)F [Example 189, (S)-N2-(1-(2-methoxypropyl)-3-methyl-1H-pyrazol-4-yl)-N4-methyl-5-(trifluoromethyl) pyrimidine-2,4-diamine]",11.8
17,"CNc1nc(Nc2cn(C(C)(C)COC)nc2C)ncc1C(F)(F)F [Example 190, N2-(1-(1-methoxy-2-methylpropan-2-yl)-3-methyl-1H-pyrazol-4-yl)-N4-methyl-5-(trifluoromethyl) pyrimidine-2,4-diamine]",6.9
18,"CNc1nc(Nc2cn(C3CC(C)OC(C)C3)nc2C)ncc1C(F)(F)F (stereo not drawn) [Example 191, N2-(1-(2,6-dimethyltetrahydro-2H-pyran-4-yl)-3-methyl-1H-pyrazol-4-yl)-N4-methyl-5-(trifluoromethyl) pyrimidine-2,4-diamine]",84.6
19,"CNc1nc(Nc2cnn(C[C@@H](C)OC)c2C)ncc1C(F)(F)F [Example 192, (R)-N2-(1-(2-methoxypropyl)-5-methyl-1H-pyrazol-4-yl)-N4-methyl-5-(trifluoromethyl) pyrimidine-2,4-diamine]",6.3
20,"CNc1nc(Nc2cn(C3CCC(OC)C3)nc2C)ncc1C(F)(F)F (stereo not drawn) [Example 193, N2-(1-(3-methoxycyclo-pentyl)-3-methyl-1H-pyrazol-4-yl)-N4-methyl-5-(trifluoromethyl) pyrimidine-2,4-diamine]",19
21,"CNc1nc(Nc2cnn(CC(C)(C)O)c2C(F)(F)F)ncc1C(F)(F)F [Example 197, 2-methyl-1-(4-(4-(methylamino)-5-(trifluoromethyl)pyrimidin-2-ylamino)-5-(trifluoromethyl)-1H-pyrazol-1-yl)propan-2-ol]",26
22,"CNc1nc(Nc2cn(CC(C)(C)O)nc2C(F)(F)F)ncc1C(F)(F)F [Example 198, 2-methyl-1-(4-(4-(methylamino)-5-(trifluoromethyl)pyrimidin-2-ylamino)-3-(trifluoromethyl)-1H-pyrazol-1-yl)propan-2-ol]",27
23,"CNc1nc(Nc2cn(C3CCN(C4COC4)CC3F)nc2C)ncc1C(F)(F)F (stereo not drawn) [Example 199, N2-(1-(3-fluoro-1-(oxetan-3-yl)piperidin-4-yl)-3-methyl-1H-pyrazol-4-yl)-N4-methyl-5-(trifluoromethyl) pyrimidine-2,4-diamine]",2.2

# Second part, the compound after the results:
row,Ki [nM],Structure (SMILES)
1,1.2,"CNc1nc(Nc2cnn(CC3CC3)c2C)ncc1C(F)(F)F [Example 165, N2-(1-(cyclopropyl-methyl)-5-methyl-1H-pyrazol-4-yl)-N4-methyl-5-(trifluoromethyl) pyrimidine-2,4-diamine]"
2,4.5,"CNc1nc(Nc2cn(CC3CC3)nc2C)ncc1C(F)(F)F [Example 166, N2-(1-(cyclopropyl-methyl)-3-methyl-1H-pyrazol-4-yl)-N4-methyl-5-(trifluoromethyl) pyrimidine-2,4-diamine]"
3,9.5,"CNc1nc(Nc2cnn(C3COC3)c2Cl)ncc1C(F)(F)F [Example 168, N2-(5-chloro-1-(oxetan-3-yl)-1H-pyrazol-4-yl)-N4-methyl-5-(trifluoromethyl) pyrimidine-2,4-diamine]"
4,2,"CNc1nc(Nc2cn(S(=O)(=O)C3CC3)nc2C)ncc1C(F)(F)F [Example 170, N2-(1-(cyclopropyl-sulfonyl)-3-methyl-1H-pyrazol-4-yl)-N4-methyl-5-(trifluoromethyl) pyrimidine-2,4-diamine]"
5,6.8,"CNc1nc(Nc2cnn(C3CCN(C(=O)C(C)C)CC3)c2C)ncc1C(F)(F)F [Example 175, 2-methyl-1-(4-(5-methyl-4-(4-(methylamino)-5-(trifluoromethyl)pyrimidin-2-ylamino)-1H-pyrazol-1-yl)piperidin-1-yl)propan-1-one]"
6,6.7,"CNc1nc(Nc2cn(C)nc2C2CC2)ncc1C(F)(F)F [Example 177, N2-(3-cyclopropyl-1-methyl-1H-pyrazol-4-yl)-N4-methyl-5-(trifluoromethyl) pyrimidine-2,4-diamine]"
7,12,"CNc1nc(Nc2cnn(C)c2C2CC2)ncc1C(F)(F)F [Example 178, N2-(5-cyclopropyl-1-methyl-1H-pyrazol-4-yl)-N4-methyl-5-(trifluoromethyl) pyrimidine-2,4-diamine]"
8,9,"CNc1nc(Nc2cnn(CC3(C)COC3)c2C)ncc1C(F)(F)F [Example 179, N4-methyl-N2-(5-methyl-1-((3-methyloxetan-3-yl)methyl)-1H-pyrazol-4-yl)-5-(trifluoromethyl) pyrimidine-2,4-diamine]"
9,0.82,"CCNc1nc(Nc2cnn(C3CCN(C(=O)C(C)C)CC3)c2C)ncc1C(F)(F)F [Example 181, l-(4-(4-(4-(ethylamino)-5-(trifluoromethyl)pyrimidin-2-ylamino)-5-methyl-1H-pyrazol-1-yl)piperidin-1-yl)-2-methylpropan-1-one]"
10,4.7,"CCNc1nc(Nc2cnn(C3CCN(C(=O)C4CC4)CC3)c2C)ncc1C(F)(F)F [Example 184, cyclopropyl(4-(4-(4-(ethylamino)-5-(trifluoromethyl)pyrimidin-2-ylamino)-5-methyl-1H-pyrazol-1-yl)piperidin-1-yl)methanone]"
11,52.2,"CNc1nc(Nc2cnn(C)c2NC)ncc1C(F)(F)F [Example 194, N4-methyl-N2-(1-methyl-5-(methylamino)-1H-pyrazol-4-yl)-5-(trifluoromethyl) pyrimidine-2,4-diamine]"
12,10,"CNc1nc(Nc2cnn(S(C)(=O)=O)c2C)ncc1C(F)(F)F [Example 195, N4-methyl-N2-(5-methyl-1-(methylsulfonyl)-1H-pyrazol-4-yl)-5-(trifluoromethyl) pyrimidine-2,4-diamine]"
13,47,"CNc1nc(Nc2cnn(C3CCS(=O)(=O)CC3)c2C)ncc1C(F)(F)F [Example 196, N4-methyl-N2-(5-methyl-1-(tetrahydro-2H-1,1-dioxo-thiopyran-4-yl)-1H-pyrazol-4-yl)-5-(trifluoromethyl) pyrimidine-2,4-diamine]"
